Measured values reported in ChEMBL document CHEMBL5620439, “Talaromides A-C, Bioactive Cyclic Heptapeptides from Talaromyces siglerae Isolated from a Marine Sponge” (2024).
Active and inactive are the calls of the source. The calls are words filed in the database; no cut-off is given here.

What was measured:
Salmonella typhimurium = test: Antimicrobial activity against Salmonella typhimurium 2515; assay type: functional, organism-based; conditions: Salmonella enterica subsp. enterica serovar Typhimurium
PANC-1 [1] = test: Cytotoxicity against human PANC-1 cells assessed as reduction in cell viability at 10 to 100 uM incubated for 72 hrs by MTT assay; assay type: functional, cell-based; conditions: dose 10-100 µM
[2] = tested on: Staphylococcus epidermidis; test: Antimicrobial activity against Staphylococcus epidermidis 1917; assay type: functional, organism-based
Staphylococcus aureus [3] = test: Antimicrobial activity against methicillin sensitive Staphylococcus aureus CCARM 0205; assay type: functional, organism-based
Escherichia coli = test: Antimicrobial activity against Escherichia coli 2441; assay type: functional, organism-based
PANC-1 [4] = test: Antimetastatic activity in human PANC-1 cells assessed as decrease in migration at 80 uM incubated for 48 hrs by scratch wound healing assay relative to control; assay type: functional; design: scale not given: the % may be the effect or the level left
Staphylococcus aureus [5] = test: Antimicrobial activity against methicillin sensitive Staphylococcus aureus CCARM 3090; assay type: functional, organism-based
Staphylococcus aureus [6] = test: Antimicrobial activity against methicillin sensitive Staphylococcus aureus CCARM 0204; assay type: functional, organism-based
Staphylococcus aureus [7] = test: Antimicrobial activity against methicillin sensitive Staphylococcus aureus CCARM 3635; assay type: functional, organism-based
Bacillus subtilis = test: Antimicrobial activity against Bacillus subtilis 1021; assay type: functional, organism-based
RAW264.7 = test: Inhibition of nitric oxide production in LPS-activated mouse RAW264.7 cells; assay type: functional, cell-based

SMILES	Activity (Salmonella typhimurium)	Activity (PANC-1 [1])	Activity [2]	Activity (Staphylococcus aureus [3])	Activity (Escherichia coli)	Activity (PANC-1 [4]) [%]	Activity (Staphylococcus aureus [5])	Activity (Staphylococcus aureus [6])	Activity (Staphylococcus aureus [7])	Activity (Bacillus subtilis)	inhibition (RAW264.7)
CC[C@@H](C)[C@H]1NC(=O)[C@H](C)NC(=O)[C@H]([C@@H](C)O)NC(=O)[C@@H](Cc2ccc(O)cc2)NC(=O)[C@@H](C(C)C)NC(=O)c2ccccc2NC(=O)[C@@H]2CCCN2C1=O	inactive	inactive	inactive	inactive	inactive	52	inactive	inactive	inactive	inactive	inactive
CC[C@@H](C)[C@H]1NC(=O)c2ccccc2NC(=O)[C@@H]2CCCN2C(=O)[C@@H](CC(C)C)NC(=O)[C@H](C)NC(=O)[C@H]([C@@H](C)O)NC(=O)[C@@H](Cc2ccc(O)cc2)NC1=O	inactive	inactive	inactive	inactive	inactive		inactive	inactive	inactive	inactive	inactive
CC[C@@H](C)[C@H]1NC(=O)c2ccccc2NC(=O)[C@@H]2CCCN2C(=O)[C@@H]([C@H](C)CC)NC(=O)[C@H](C)NC(=O)[C@H]([C@@H](C)O)NC(=O)[C@@H](Cc2ccc(O)cc2)NC1=O	inactive	inactive	inactive	inactive	inactive	48	inactive	inactive	inactive	inactive	inactive
